# Test results published in patent US8063065B2, “Azaindazole compounds as CCR1 receptor antagonists” (Boehringer Ingelheim International GmbH, priority 2008, dated 2011).
# Molecular target: T1, CCR1 (Homo sapiens, UniProt P32246)
# T1 sequence (P32246 1-355): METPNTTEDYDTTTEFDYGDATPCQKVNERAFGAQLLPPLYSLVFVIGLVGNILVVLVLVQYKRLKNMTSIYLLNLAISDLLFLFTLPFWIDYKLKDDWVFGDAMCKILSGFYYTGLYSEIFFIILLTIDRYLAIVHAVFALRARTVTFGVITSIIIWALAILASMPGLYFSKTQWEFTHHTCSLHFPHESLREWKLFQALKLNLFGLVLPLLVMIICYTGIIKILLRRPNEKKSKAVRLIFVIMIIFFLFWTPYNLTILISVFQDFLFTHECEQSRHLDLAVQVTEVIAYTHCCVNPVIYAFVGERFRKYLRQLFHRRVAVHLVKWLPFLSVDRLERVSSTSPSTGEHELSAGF
# Assay: Method A: calcium flux in CCR1 transfected cells (Fluo-4 NW, FLIPR TETRA), block of the CCR1/MIP-1α interaction
# Format: cell-based
# Conditions: Method A: Fluo-4 NW, MIP-1 alpha at EC80
# Description: Compounds are assessed for the ability to block the interaction of CCR1 and MIP-1α in a functional cellular assay measuring calcium flux in CCR1 transfected cells.
# Method A: Non-adherent cells purchased from Chemicon Corporation (HTS005C), stably expressing recombinant CCR1 and G-alpha-16 are grown in RPMI 1640 medium (Mediatech 10-080-CM) supplemented with 10% heat-inactivated FBS, 0.4 mg/mL Geneticin and penicillin/streptomycin. On the day of the assay, the cells are transferred to a beaker and dye-loaded in bulk using a Fluo-4 NW Calcium Assay Kit with probenecid (Invitrogen F36205) at 0.8E6 cells/mL for 1 hour at room temperature. After 1 hour, they are seeded in a 384-well tissue culture-treated plate at a density of 20,000 cells/well. Appropriately diluted test compound is added to the well to achieve a top concentration of 3,000 nM (diluted 4-fold with 10 doses total). The final concentration of DMSO is 1%. The buffer is HBSS (Invitrogen 14025) with 20 mM HEPES at pH 7.4. The cells are allowed to incubate 1 hour in the dark at room temperature. The plates are transferred to the FLIPR TETRA where MIP-1 alpha in 1% BSA is added at the EC80 final concentration. Wells+/−MIP-1 alpha containing diluted DMSO instead of compound serve as the controls. Intracellular calcium flux is recorded on the FLIPR TETRA, using excitation at 470/495 nm and emission at 515/575 nm. Data are analyzed using Activity Base software.
row,IC50,Compound
1,1 nM,"CNS(=O)(=O)c1ccc(CNC(=O)c2cncc3c2cnn3-c2ccc(F)cc2)cc1F [1-(4-Fluorophenyl)-1H-pyrazolo[3,4-c]pyridine-4-carboxylic acid 3-fluoro-4-methylsulfamoyl-benzylamide]"
2,24 nM,"CS(=O)(=O)c1ccc(CNC(=O)c2cncc3c2cnn3-c2ccc(F)cc2)cc1O [1-(4-Fluorophenyl)-1H-pyrazolo[3,4-c]pyridine-4-carboxylic acid 3-hydroxy-4-methanesulfonyl-benzylamide]"
3,3 nM,"CNS(=O)(=O)c1ccc(CNC(=O)c2cncc3c2cnn3-c2ccc(F)cc2)cc1OC [1-(4-Fluorophenyl)-1H-pyrazolo[3,4-c]pyridine-4-carboxylic acid 3-methoxy-4-methylsulfamoyl-benzylamide]"
4,0.9 nM,"CC(C)(CO)NS(=O)(=O)c1ccc(CNC(=O)c2cncc3c2cnn3-c2ccc(F)cc2)cc1 [1-(4-Fluorophenyl)-1H-pyrazolo[3,4-c]pyridine-4-carboxylic acid 4-(2-hydroxy-1,1-dimethyl-ethylsulfamoyl)-benzylamide]"
5,2 nM,"CC(CO)NS(=O)(=O)c1ccc(CNC(=O)c2cncc3c2cnn3-c2ccc(F)cc2)cc1 (stereo not drawn) [1-(4-Fluorophenyl)-1H-pyrazolo[3,4-c]pyridine-4-carboxylic acid 4-(2-hydroxy-1-methyl-ethylsulfamoyl)-benzylamide]"
6,1 nM,"O=C(NCc1ccc(S(=O)(=O)NCCO)cc1)c1cncc2c1cnn2-c1ccc(F)cc1 [1-(4-Fluorophenyl)-1H-pyrazolo[3,4-c]pyridine-4-carboxylic acid 4-(2-hydroxy-ethylsulfamoyl)-benzylamide]"
7,2 nM,"CC(O)CNS(=O)(=O)c1ccc(CNC(=O)c2cncc3c2cnn3-c2ccc(F)cc2)cc1 (stereo not drawn) [1-(4-Fluorophenyl)-1H-pyrazolo[3,4-c]pyridine-4-carboxylic acid 4-(2-hydroxy-propylsulfamoyl)-benzylamide]"
8,0.9 nM,"O=C(NCc1ccc(S(=O)(=O)N2CCC(O)C2)cc1)c1cncc2c1cnn2-c1ccc(F)cc1 (stereo not drawn) [1-(4-Fluorophenyl)-1H-pyrazolo[3,4-c]pyridine-4-carboxylic acid 4-(3-hydroxy-pyrrolidine-1-sulfonyl)-benzylamide]"
9,3 nM,"O=C1CN(S(=O)(=O)c2ccc(CNC(=O)c3cncc4c3cnn4-c3ccc(F)cc3)cc2)CCN1 [1-(4-Fluorophenyl)-1H-pyrazolo[3,4-c]pyridine-4-carboxylic acid 4-(3-oxo-piperazine-1-sulfonyl)-benzylamide]"
10,0.3 nM,"NC1CCN(S(=O)(=O)c2ccc(CNC(=O)c3cncc4c3cnn4-c3ccc(F)cc3)cc2)CC1 [1-(4-Fluorophenyl)-1H-pyrazolo[3,4-c]pyridine-4-carboxylic acid 4-(4-amino-piperidine-1-sulfonyl)-benzylamide]"
11,3 nM,"CN(C)C1CCN(S(=O)(=O)c2ccc(CNC(=O)c3cncc4c3cnn4-c3ccc(F)cc3)cc2)CC1 [1-(4-Fluorophenyl)-1H-pyrazolo[3,4-c]pyridine-4-carboxylic acid 4-(4-dimethylamino-piperidine-1-sulfonyl)-benzylamide]"
12,2 nM,"O=C(NCc1ccc(S(=O)(=O)N2CCC(O)CC2)cc1)c1cncc2c1cnn2-c1ccc(F)cc1 [1-(4-Fluorophenyl)-1H-pyrazolo[3,4-c]pyridine-4-carboxylic acid 4-(4-hydroxy-piperidine-1-sulfonyl)-benzylamide]"
13,0.7 nM,"COC1CCN(S(=O)(=O)c2ccc(CNC(=O)c3cncc4c3cnn4-c3ccc(F)cc3)cc2)CC1 [1-(4-Fluorophenyl)-1H-pyrazolo[3,4-c]pyridine-4-carboxylic acid 4-(4-methoxy-piperidine-1-sulfonyl)-benzylamide]"
14,1 nM,"CN1CCN(S(=O)(=O)c2ccc(CNC(=O)c3cncc4c3cnn4-c3ccc(F)cc3)cc2)CC1 [1-(4-Fluorophenyl)-1H-pyrazolo[3,4-c]pyridine-4-carboxylic acid 4-(4-methyl-piperazine-1-sulfonyl)-benzylamide]"
15,39 nM,"CN1CCN(S(=O)(=O)Cc2ccc(CNC(=O)c3cncc4c3cnn4-c3ccc(F)cc3)cc2)CC1 [1-(4-Fluorophenyl)-1H-pyrazolo[3,4-c]pyridine-4-carboxylic acid 4-(4-methyl-piperazine-1-sulfonylmethyl)-benzylamide]"
16,2 nM,"C[C@H](CO)NS(=O)(=O)c1ccc(CNC(=O)c2cncc3c2cnn3-c2ccc(F)cc2)cc1 [1-(4-Fluorophenyl)-1H-pyrazolo[3,4-c]pyridine-4-carboxylic acid 4-((R)-2-hydroxy-1-methyl-ethylsulfamoyl)-benzylamide]"
17,2 nM,"C[C@@H](CO)NS(=O)(=O)c1ccc(CNC(=O)c2cncc3c2cnn3-c2ccc(F)cc2)cc1 [1-(4-Fluorophenyl)-1H-pyrazolo[3,4-c]pyridine-4-carboxylic acid 4-((S)-2-hydroxy-1-methyl-ethylsulfamoyl)-benzylamide]"
18,22 nM,"NC(=O)CNS(=O)(=O)c1ccc(CNC(=O)c2cncc3c2cnn3-c2ccc(F)cc2)cc1 [1-(4-Fluorophenyl)-1H-pyrazolo[3,4-c]pyridine-4-carboxylic acid 4-(carbamoylmethyl-sulfamoyl)-benzylamide]"
19,3 nM,"CC(C)NS(=O)(=O)Cc1ccc(CNC(=O)c2cncc3c2cnn3-c2ccc(F)cc2)cc1 [1-(4-Fluorophenyl)-1H-pyrazolo[3,4-c]pyridine-4-carboxylic acid 4-(isopropylsulfamoyl-methyl)-benzylamide]"
20,2 nM,"CN(C1CCNCC1)S(=O)(=O)c1ccc(CNC(=O)c2cncc3c2cnn3-c2ccc(F)cc2)cc1 [1-(4-Fluorophenyl)-1H-pyrazolo[3,4-c]pyridine-4-carboxylic acid 4-(methyl-piperidin-4-yl-sulfamoyl)-benzylamide]"
21,2 nM,"O=C(NCc1ccc(S(=O)(=O)N2CCOCC2)cc1)c1cncc2c1cnn2-c1ccc(F)cc1 [1-(4-Fluorophenyl)-1H-pyrazolo[3,4-c]pyridine-4-carboxylic acid 4-(morpholine-4-sulfonyl)-benzylamide]"
22,20 nM,"O=C(NCc1ccc(CS(=O)(=O)N2CCOCC2)cc1)c1cncc2c1cnn2-c1ccc(F)cc1 [1-(4-Fluorophenyl)-1H-pyrazolo[3,4-c]pyridine-4-carboxylic acid 4-(morpholine-4-sulfonylmethyl)-benzylamide]"
23,6 nM,"O=C(NCc1ccc(CS(=O)(=O)N2CCCCC2)cc1)c1cncc2c1cnn2-c1ccc(F)cc1 [1-(4-Fluorophenyl)-1H-pyrazolo[3,4-c]pyridine-4-carboxylic acid 4-(piperidine-1-sulfonylmethyl)-benzylamide]"
24,1 nM,"CN(CCO)S(=O)(=O)c1ccc(CNC(=O)c2cncc3c2cnn3-c2ccc(F)cc2)cc1 [1-(4-Fluorophenyl)-1H-pyrazolo[3,4-c]pyridine-4-carboxylic acid 4-[(2-hydroxy-ethyl)-methyl-sulfamoyl]-benzylamide]"
25,5 nM,"CN1CCC(N(C)S(=O)(=O)c2ccc(CNC(=O)c3cncc4c3cnn4-c3ccc(F)cc3)cc2)CC1 [1-(4-Fluorophenyl)-1H-pyrazolo[3,4-c]pyridine-4-carboxylic acid 4-[methyl-(1-methyl-piperidin-4-yl)-sulfamoyl]-benzylamide]"
26,2 nM,"CN(C1CCOCC1)S(=O)(=O)c1ccc(CNC(=O)c2cncc3c2cnn3-c2ccc(F)cc2)cc1 [1-(4-Fluorophenyl)-1H-pyrazolo[3,4-c]pyridine-4-carboxylic acid 4-[methyl-(tetrahydropyran-4-yl)-sulfamoyl]-benzylamide]"
27,11 nM,"O=C(NCc1ccc(CS(=O)(=O)NC2CCCCC2)cc1)c1cncc2c1cnn2-c1ccc(F)cc1 [1-(4-Fluorophenyl)-1H-pyrazolo[3,4-c]pyridine-4-carboxylic acid 4-cyclohexylsulfamoylmethyl-benzylamide]"
28,10 nM,"COc1cc(S(C)(=O)=O)ccc1CNC(=O)c1cncc2c1cnn2-c1ccc(F)cc1 [1-(4-Fluorophenyl)-1H-pyrazolo[3,4-c]pyridine-4-carboxylic acid 4-methanesulfonyl-2-methoxy-benzylamide]"
29,4 nM,"COc1cc(CNC(=O)c2cncc3c2cnn3-c2ccc(F)cc2)ccc1S(C)(=O)=O [1-(4-Fluorophenyl)-1H-pyrazolo[3,4-c]pyridine-4-carboxylic acid 4-methanesulfonyl-3-methoxy-benzylamide]"
30,7 nM,"CS(=O)(=O)Nc1ccc(CNC(=O)c2cncc3c2cnn3-c2ccc(F)cc2)cc1 [1-(4-Fluorophenyl)-1H-pyrazolo[3,4-c]pyridine-4-carboxylic acid 4-methanesulfonylamino-benzylamide]"
